Measurements from US20120108501A1, “Protease Inhibitors” (priority 2009, published 2012).

Assay: Pharmacokinetics of released PEGylated protease inhibitor following P.O. administration of prodrugs in rats
Format: in vivo, male Sprague-Dawley rats
Parameters: AUCall Mean: concentration or dose not given beside the values; C24 Mean: unit not given here
Conditions: rats (n = 4-5); for C24 Mean: concentration at 24 hours
Description: Pharmacokinetic analysis of protease inhibitors described herein was conducted. To evaluate the pharmacokinetics of PEGylated protease inhibitor conjugates with releasable lipophilic attachments, test compounds were administered to male Sprague-Dawley rats.
At various times following test article administration, serial blood samples were collected from indwelling jugular vein catheters and transferred to micro-tubes containing 7.5 μL of 20% w/v K2EDTA as an anticoagulant. Following processing of the blood samples to plasma (10 minutes at 10000 rpm, Centrifuge Model: Kubota 3500), plasma concentrations of the test article or corresponding PEGylated molecule released from the test article was measured using LC-MS/MS methods. Pharmacokinetic parameters were estimated using noncompartmental methods.

[1] = mPEG5-atazanavir in plasma after PO administration of mPEG5-ATV or of the listed prodrug
[2] = mPEG6-atazanavir in plasma after PO administration of mPEG6-ATV or of the listed prodrug
[3] = mPEG3-atazanavir in plasma after PO administration of mPEG3-ATV or of the listed prodrug

SMILES | AUCall Mean [1] [ng·h/mL] | Cmax Mean [1] [ng/mL] | MRT last Mean [1] [h] | Tmax Median [1] [h] | AUCall Mean [2] [ng·h/mL] | Cmax Mean [2] [ng/mL] | MRT last Mean [2] [h] | Tmax Median [2] [h] | also measured
CCOC(CC)OC(CN(Cc1ccc(-c2ccccn2)cc1)NC(=O)C(NC(=O)OC)C(C)(C)C)C(Cc1ccccc1)NC(=O)C(NC(=O)OCCOCCOCCOCCOCCOC)C(C)(C)C (mixture of isomers) [ATV-1-Ethoxy propoxy-mPEG5, atazanavir-1-ethoxypropoxy-mPEG5] | 235 | 55.3 | 3.53 | 1.00 | – | – | – | – | –
CCOC(CC)OC(CN(Cc1ccc(-c2ccccn2)cc1)NC(=O)C(NC(=O)OC)C(C)(C)C)C(Cc1ccccc1)NC(=O)C(NC(=O)OCCOCCOCCOCCOCCOCCOC)C(C)(C)C (mixture of isomers) [ATV-1-Ethoxy propoxy-mPEG6, atazanavir-1-ethoxypropoxy-mPEG6] | – | – | – | – | 185 | 83.0 | 5.16 | 0.750 | –
COCCOCCOCCOC(=O)N[C@H](C(=O)N[C@@H](Cc1ccccc1)[C@H](CN(Cc1ccc(-c2ccccn2)cc1)NC(=O)[C@@H](NC(=O)OC)C(C)(C)C)OC(C)=O)C(C)(C)C [Acetyl-mPEG3-ATV, O-Acetyl-mPEG3-Atazanavir] | – | – | – | – | – | – | – | – | AUCall Mean [3]: 5.63 ng·h/mL; Cmax Mean [3]: 2.43 ng/mL; MRT last Mean [3]: 1.01 h; Tmax* Median [3]: 0.750 h
COCCOCCOCCOCCOCCOCCOC(=O)NC(C(=O)NC(Cc1ccccc1)C(CN(Cc1ccc(-c2ccccn2)cc1)NC(=O)C(NC(=O)OC)C(C)(C)C)OC(C)=O)C(C)(C)C (stereo not drawn) [Acetyl-mPEG6-Atazanavir, O-Acetyl-mPEG6-Atazanavir] | – | – | – | – | 150 | 10.3 | 13.8 | 6.00 | –
CCC(=O)OC(CN(Cc1ccc(-c2ccccn2)cc1)NC(=O)C(NC(=O)OC)C(C)(C)C)C(Cc1ccccc1)NC(=O)C(NC(=O)OCCOCCOCCOC)C(C)(C)C (stereo not drawn) [C2H5CO-mPEG3-ATV, mPEG3-Atazanavir Propionate] | – | – | – | – | – | – | – | – | AUCall Mean [3]: 59.6 ng·h/mL; Cmax Mean [3]: 17.8 ng/mL; MRT last Mean [3]: 2.44 h; Tmax* Median [3]: 0.500 h
CCC(=O)OC(CN(Cc1ccc(-c2ccccn2)cc1)NC(=O)C(NC(=O)OC)C(C)(C)C)C(Cc1ccccc1)NC(=O)C(NC(=O)OCCOCCOCCOCCOCCOC)C(C)(C)C (stereo not drawn) [C2H5CO-mPEG5-ATV, mPEG5-Atazanavir Propionate] | 39.1 | 6.90 | 4.04 | 0.750 | – | – | – | – | –
CCC(=O)O[C@@H](CN(Cc1ccc(-c2ccccn2)cc1)NC(=O)[C@@H](NC(=O)OC)C(C)(C)C)[C@H](Cc1ccccc1)NC(=O)[C@@H](NC(=O)OCCOCCOCCOCCOCCOCCOC)C(C)(C)C [C2H5CO-mPEG6-ATV, mPEG6-Atazanavir Propionate] | – | – | – | – | 13.2 | 1.86 | 8.28 | 2.00 | –
CCCC(=O)O[C@@H](CN(Cc1ccc(-c2ccccn2)cc1)NC(=O)[C@@H](NC(=O)OC)C(C)(C)C)[C@H](Cc1ccccc1)NC(=O)[C@@H](NC(=O)OCCOCCOCCOC)C(C)(C)C [C3H7CO-mPEG3-ATV, mPEG3-Atazanavir Butyrate] | – | – | – | – | – | – | – | – | C24 Mean [3]: 0.00; AUCall Mean [3]: 11.4 ng·h/mL; Cmax Mean [3]: 3.08 ng/mL; MRT last Mean [3]: 1.56 h; Tmax* Median [3]: 1.00 h
CCCC(=O)OC(CN(Cc1ccc(-c2ccccn2)cc1)NC(=O)C(NC(=O)OC)C(C)(C)C)C(Cc1ccccc1)NC(=O)C(NC(=O)OCCOCCOCCOCCOCCOC)C(C)(C)C (stereo not drawn) [C3H7CO-mPEG5-ATV, mPEG5-Atazanavir Butyrate] | 3.92 | 1.44 | 0.984 | 1.00 | – | – | – | – | C24 Mean [1]: 0.00
CCCC(=O)OC(CN(Cc1ccc(-c2ccccn2)cc1)NC(=O)C(NC(=O)OC)C(C)(C)C)C(Cc1ccccc1)NC(=O)C(NC(=O)OCCOCCOCCOCCOCCOCCOC)C(C)(C)C (stereo not drawn) [C3H7CO-mPEG6-ATV, mPEG6-Atazanavir Butyrate] | – | – | – | – | 6.16 | 2.22 | 1.36 | 2.00 | C24 Mean [2]: 0.00
CCCCC(=O)O[C@@H](CN(Cc1ccc(-c2ccccn2)cc1)NC(=O)[C@@H](NC(=O)OC)C(C)(C)C)[C@H](Cc1ccccc1)NC(=O)[C@@H](NC(=O)OCCOCCOCCOCCOCCOC)C(C)(C)C [C4H9CO-PEG5-ATV, C4H9CO-mPEG5-atazanavir] | 39.3 | 9.46 | 2.43 | 0.750 | – | – | – | – | –
CCCCC(=O)OC(CN(Cc1ccc(-c2ccccn2)cc1)NC(=O)C(NC(=O)OC)C(C)(C)C)C(Cc1ccccc1)NC(=O)C(NC(=O)OCCOCCOCCOC)C(C)(C)C (stereo not drawn) [C4H9CO-mPEG3-ATV, C4H9CO-mPEG3-atazanavir] | – | – | – | – | – | – | – | – | AUCall Mean [3]: 40.1 ng·h/mL; Cmax Mean [3]: 7.42 ng/mL; MRT last Mean [3]: 3.00 h; Tmax* Median [3]: 1.25 h
CCCCC(=O)OC(CN(Cc1ccc(-c2ccccn2)cc1)NC(=O)C(NC(=O)OC)C(C)(C)C)C(Cc1ccccc1)NC(=O)C(NC(=O)OCCOCCOCCOCCOCCOCCOC)C(C)(C)C (stereo not drawn) [C4H9CO-mPEG6-ATV, C4H9CO-mPEG6-atazanavir] | – | – | – | – | 36.5 | 13.8 | 1.14 | 0.750 | –
CCCCCC(=O)O[C@@H](CN(Cc1ccc(-c2ccccn2)cc1)NC(=O)[C@@H](NC(=O)OC)C(C)(C)C)[C@H](Cc1ccccc1)NC(=O)[C@@H](NC(=O)OCCOCCOCCOCCOCCOC)C(C)(C)C [C5H11CO-mPE5-ATV, C5H11CO-mPEG5-atazanavir] | 23.7 | 7.38 | 2.42 | 0.500 | – | – | – | – | –
CCCCCC(=O)O[C@@H](CN(Cc1ccc(-c2ccccn2)cc1)NC(=O)[C@@H](NC(=O)OC)C(C)(C)C)[C@H](Cc1ccccc1)NC(=O)[C@@H](NC(=O)OCCOCCOCCOC)C(C)(C)C [C5H11CO-mPEG3-ATV, C5H11CO-mPEG3-atazanavir] | – | – | – | – | – | – | – | – | AUCall Mean [3]: 33.9 ng·h/mL; Cmax Mean [3]: 7.51 ng/mL; MRT last Mean [3]: 2.78 h; Tmax* Median [3]: 2.00 h
CCCCCC(=O)O[C@@H](CN(Cc1ccc(-c2ccccn2)cc1)NC(=O)[C@@H](NC(=O)OC)C(C)(C)C)[C@H](Cc1ccccc1)NC(=O)[C@@H](NC(=O)OCCOCCOCCOCCOCCOCCOC)C(C)(C)C [C5H11CO-mPEG6-ATV, C5H11CO-mPEG6-atazanavir] | – | – | – | – | 78.1 | 21.4 | 5.01 | 0.500 | –
CCCCCCCC(=O)OC(CN(Cc1ccc(-c2ccccn2)cc1)NC(=O)C(NC(=O)OC)C(C)(C)C)C(Cc1ccccc1)NC(=O)C(NC(=O)OCCOCCOCCOCCOCCOCCOC)C(C)(C)C (stereo not drawn) [C7H15CO-mPEG6-ATV, O-Octanoyl-mPEG6-Atazanavir] | – | – | – | – | 66.0 | 11.1 | 4.47 | 2.00 | –
COCCOCCOCCOCCOCCOC(=O)NC(C(=O)NC(Cc1ccccc1)C(CN(Cc1ccc(-c2ccccn2)cc1)NC(=O)C(NC(=O)OC)C(C)(C)C)OC(=O)CNC(=O)C(N)CC(C)C)C(C)(C)C.Cl (stereo not drawn) [Leu-Gly-mPEG5-Atazanavir HCl, Leu-Gly-mPEG5-Atazanavir Hydrochloride] | 344 | 19.5 | 11.3 | 12.0 | – | – | – | – | C24 Mean [1]: 18.1
COCCOCCOCCOCCOCCOCCOC(=O)N[C@H](C(=O)N[C@@H](Cc1ccccc1)[C@H](CN(Cc1ccc(-c2ccccn2)cc1)NC(=O)[C@@H](NC(=O)OC)C(C)(C)C)OC(=O)CNC(=O)[C@@H](N)CC(C)C)C(C)(C)C.Cl [Leu-Gly-mPEG6-ATV, Leu-Gly-mPEG6-Atazanavir Hydrochloride] | – | – | – | – | 294 | 13.7 | 27.2 | 30.0 | –
COCCOCCOCCOCCOCCOCCOC(=O)NC(C(=O)NC(Cc1ccccc1)C(CN(Cc1ccc(-c2ccccn2)cc1)NC(=O)C(NC(=O)OC)C(C)(C)C)OC(=O)C(CC(C)C)NC(=O)C(N)CC(C)C)C(C)(C)C.Cl (stereo not drawn) [Leu-Leu-mPEG6-ATV, Leu-Leu-mPEG6-Atazanavir Hydrochloride] | – | – | – | – | 152 | 14.2 | 13.1 | 1.50 | –
COCCOCCOCCOCCOCCOCCOC(=O)N[C@H](C(=O)N[C@@H](Cc1ccccc1)[C@H](CN(Cc1ccc(-c2ccccn2)cc1)NC(=O)[C@@H](NC(=O)OC)C(C)(C)C)OC(=O)[C@H](Cc1ccccc1)NC(=O)[C@@H](N)CC(C)C)C(C)(C)C.Cl [Leu-Phe-mPEG6-ATV, Leu-Phe-mPEG6-Atazanavir Hydrochloride] | – | – | – | – | 418 | 37.2 | 13.8 | 1.50 | –
CCOCO[C@@H](CN(Cc1ccc(-c2ccccn2)cc1)NC(=O)[C@@H](NC(=O)OC)C(C)(C)C)[C@H](Cc1ccccc1)NC(=O)[C@@H](NC(=O)OCCOCCOCCOCCOCCOC)C(C)(C)C [Methyl ethyl ether mPEG5-ATV, mPEG5-Atazanavir Methyl Ethyl Ether] | 489 | 95.1 | 6.19 | 1.00 | – | – | – | – | C24 Mean [1]: 2.7
